From PMC12693167, “Design, Synthesis and Anticancer Activity of 6-Substituted-1-(3,4,5-trimethoxyphenyl)-1H-indole Against Tubulin Polymerisation” (Molecules, 2025)
“And” between values parts separate entries of the source, which are not always exact repeats. Equal values may be shown once. “Also recorded” adds a separate entry of the source.

Experiments:
[1] = In vivo tolerability (body weight, H&E histopathology of liver and kidney); parameters: species or system mouse
Procedure: (§1) All animal procedures were approved by the Animal Ethics Committee of the Naval Medical University (permit number: EC11-055). Male BALB/c mice (6–8 weeks old, average initial body weight approximately 18–20 g) were purchased from Shanghai SLAC Laboratory Animal Co., Ltd. The inhibitory effect of compound 3g was evaluated using a subcutaneous B16-F10 melanoma xenograft model. Log-phase B16F10 cells were suspended in PBS and subcutaneously injected into mice (200 μL containing 8 × 10^5 cells per mouse) to establish tumors. Mice were randomly divided into control and treatment groups (n = 8). Compound 3g and paclitaxel were dissolved in a vehicle consisting of DMSO:PEG:Tween-80:saline (v/v/v/v, 5:35:10:50) to the desired concentrations. Treatments (paclitaxel, 10 mg/kg; compound 3g, 20 and 50 mg/kg, doses calculated on a body-weight basis) and vehicle were administered once daily via intraperitoneal injection for 14 consecutive days. Body weights were monitored throughout the study to assess acute toxicity. Tumor volumes were measured using calipers and calculated with the formula: a × b^2 × 0.5, where a and b represent the larger and smaller tumor diameters, respectively. On day 14, mice were sacrificed and tumors were excised and weighed. […] Major organs (liver and kidneys) were collected, fixed in 4% paraformaldehyde, processed into paraffin sections, stained with hematoxylin and eosin (H&E), and examined microscopically.
Figure 8 Compound 3g inhibits melanoma tumor growth in vivo. Murine melanoma B16-F10 xenograft tumors were established in mice, which were then administered vehicle, PTX (10 mg/kg per day), compound 3g (20 mg/kg per day), and compound 3g (50 mg/kg per day) for 14 days. The mice were sacrificed, and the tumors were weighed. (A) Images of tumors from mice at 14 days after initiation of treatment. (B) Body weight changes in mice during treatment. (C) Weight of the excised tumors of each group. * p < 0.05, and *** p < 0.001 vs. control group. (D) Tumor volume changes in mice during treatment. […]

[2] = test system: B16F10 melanoma tumors in BALB/c mice; assay: In vivo antitumor efficacy, subcutaneous B16-F10 melanoma model; parameters: species or system mouse; settings: 14 days, from tumor weight
Procedure: The in vivo antitumor activity of compound 3g was evaluated using a mouse melanoma tumor model in BALB/c mice. Tumors were established by subcutaneous inoculation of B16F10 cells, and treatment was initiated when tumors reached a measurable size. Mice were administered vehicle control, paclitaxel (PTX, 10 mg/kg), or compound 3g (20 and 50 mg/kg) via intraperitoneal injection once daily for 14 consecutive days.
as §1
Murine melanoma B16-F10 xenograft tumors were established in mice, which were then administered vehicle, PTX (10 mg/kg per day), compound 3g (20 mg/kg per day), and compound 3g (50 mg/kg per day) for 14 days. […]

MCF-7 cells = assay: Colony formation assay; assay type: cell-based, human; settings: 24 h treatment
Procedure: To assess the long-term antiproliferative potential of compound 3g, a colony formation assay was conducted using MCF-7 breast cancer cells.
MCF-7 cells (1000 cells/well) were counted and seeded in 6-well plates. After being cultured for 24 h at 37 °C, the medium was replaced with medium added with compound 3g at the indicated concentration. After 24 h of treatment, the medium was changed to normal. After being cultured for another 10–14 days, the colonies were fixed with 4% paraformaldehyde for 30 min and stained with 0.1% crystal violet for 15 min. Following washing with PBS, the colonies were then photographed and quantified using Image J 1.54g.
Figure 3 Inhibition of MCF-7 Cell Colony Formation by Compound 3g. (A) 3g inhibited the colony formation of MCF-7 cells at different concentrations in a dose-dependent manner. (B) Colony units in the different groups after treatment with 3g. Number of colonies was counted after treating MCF-7 cells with the indicated concentration of compound 3g for 24 h (n = 3, * p < 0.05, ** p < 0.01 vs. DMSO control, one-way ANOVA).

HeLa cells = assay: CCK-8 antiproliferative assay, HeLa; assay type: cell-based; settings: Homo sapiens, cell viability (CCK-8), 48 h
Procedure: To evaluate the anticancer potential of the synthesized compounds, a panel of six human and murine cancer cell lines representing different tissue origins was selected, including MCF-7 (human breast adenocarcinoma), MDA-MB-231 (human triple-negative breast cancer), A549 (human non-small cell lung cancer), HeLa (human cervical cancer), A375 (human melanoma), and B16-F10 (murine melanoma) (Table 2). […] DMSO was used as the vehicle control, and all experiments were performed in triplicate to ensure reproducibility.
Human breast cancer cells (MCF-7), human lung cancer cells (A549), human cervical cancer cells (HeLa), human triple-negative breast cancer cells (MDA-MB-231), and human malignant melanoma cells (A375) were cultured in DMEM. Mouse melanoma cells (B16F10) were maintained in RPMI-1640 medium. All media were supplemented with 10% fetal bovine serum and 1% penicillin-streptomycin (Life Technologies, Carlsbad, CA, USA) and maintained at 37 °C in a humidified atmosphere with 5% CO2.
The cytotoxicity of the test compounds was evaluated against MCF-7, A549, HeLa, MDA-MB-231, A375, and B16F10 using the CCK-8 assay. Cells were seeded into 96-well plates at a density of 5000 cells/well. After removing the medium, 100 μL of medium with 0.1% DMSO containing test compounds at different concentrations was added to each well and incubated at 37 °C for another 48 h. The CCK-8 solution was added and incubated for another 1 h, and then, the absorbance was detected with a microplate reader at a wavelength of 450 nm. The IC50 values were calculated by nonlinear regression analysis using GraphPad Prism 8.0.2. All the experiments were repeated at least three times.

[3] = 20 and 50 mg/kg i.p. daily, 14 days

For `COc1cc(-n2ccc3ccc(-c4ccc(C)c(C#N)c4)cc32)cc(OC)c1OC` [3g, 2-methyl-5-(1-(3,4,5-trimethoxyphenyl)-1H-indol-6-yl)benzonitrile], the systemic toxicity ([1]; 20 mg/kg and 50 mg/kg) was “without evident systemic toxicity”, the body weight change [1, 3] was “did not induce significant body weight loss” and the “histopathology of liver and kidneys (H&E)” value [1, 3] was “no overt toxicity; also recorded: did not reveal obvious morphological abnormalities”. The “tumor growth inhibition (TGI)” value ([2]; 20 mg/kg i.p. once daily) was 23.3% and 23.34%, the “tumor growth inhibition (TGI)” value ([2]; 50 mg/kg i.p. once daily) was 44.2% and 44.18% and the “clonogenic survival / colony formation” value (MCF-7 cells; 0.1 μM) was “moderate reduction”. For the same molecule, the colony formation (MCF-7 cells; 1 μM) was “progressively greater inhibition”, the colony formation (MCF-7 cells; 10 μM) was “near-complete suppression” and the IC50 (HeLa cells) was 6.1 ± 0.31 µM.
